By MIC is commonly meant the smallest concentration in the dilution series that meets the test's criterion for growth inhibition.

Consider 22 compounds from patent US12692253B2, “Antimicrobial compounds and methods” (Curza Global, LLC, priority 2019, dated 2026).

Each structure is given as a SMILES string.

Assay [1] deals with E. coli S30 extract (bacterial protein synthesis). As to the kind of experiment: E. coli S30 extract coupled transcription-translation luciferase assay (inhibition of bacterial protein synthesis). It counts as biochemical. The conditions noted are these: class by IC50 or % inhibition @ 1 μM, read-out: S30 IC50 (μM/% inhib.). The protocol:
E. coli S30 extract: Inhibition of bacterial protein synthesis was determined using the E. coli S30 Extract System for Circular DNA (Promega catalog #L-2010) and Luciferase Assay Reagent (Promega catalog #E1500) with slight modifications to a published protocol. Fyfe, C., Sutcliffe, J. A. and Grossman, T. H. (2012) “Development and characterization of a Pseudomonas aeruginosa in vitro coupled transcription-translation assay system for evaluation of translation inhibitors” J. Microbiol. Methods 90(3), 256-261.
Compounds were serial diluted in 0.5 mL microcentrifuge tubes by mixing and transferring 50 μL from the highest concentration to 50 μL of water, mixing and transferring 50 μL of this 2-fold dilution to 50 μL of water. This mixing and transferring was repeated so that there are a total of 8 tubes with serial dilutions of compound at 10× the desired screening concentration that are ultimately diluted to 1× by the addition of S30 luciferase synthesis mixture. Serial dilutions of compounds were added (2 μL) to wells in a black round bottom 96-well plate. Water (2 μL) was used as a “no inhibitor” control in 4 wells/plate. No DNA control reaction mixture (20 μL; see below) was used as a control in 4 wells/plate for background luminescence. S30 luciferase synthesis mixture (18 μL; see below) was added to wells with compounds or water mixture and incubated at 37° C. for 1 hour. Reactions were stopped by transferring to 4° C. refrigerator for 5 minutes then 25 μL of luciferase activity mix was added. Luminescence was measured using a BioTek Synergy HTX plate reader. % Inhibition was determined relative to no inhibitor controls. • S30 luciferase synthesis mixture: • 445 μL S30 extract, circular • 712 μL S30 Premix without amino acids • 4.45 μL pBESTluc™ DNA (1 μg/μL) • 78 μL complete amino acid mixture • 267 μL water • No DNA control: • 20 μL S30 extract, circular • 32 μL S30 Premix without amino acids • 7 μL complete amino acid mixture • 21 μL water Rabbit Reticulocyte lysate

Assay [2] concerns the target Rabbit Reticulocyte Lysate (eukaryotic protein synthesis). In words: Rabbit reticulocyte lysate luciferase assay (inhibition of eukaryotic protein synthesis). It counts as biochemical. As to conditions: class by IC50 or % inhibition @ 1 μM, read-out: Rabbit reticulocyte IC50 (μM/% inhib.). How it is done: Inhibition of eukaryotic protein synthesis was determined using the Rabbit Reticulocyte Lysate System, Nuclease-Treated from Promega (catalog #L-4960) with slight modifications to the manufacturer's protocol. Compounds were serial diluted in 0.5 mL microcentrifuge tubes by mixing and transferring 50 μL from the highest concentration to 50 μL of water, mixing and transferring 50 μL of this 2-fold dilution to 50 μL of water. This mixing and transferring was repeated so that there are a total of 8 tubes with serial dilutions of compound at 10× the desired screening concentration that are ultimately diluted to 1× by the addition of rabbit reticulocyte luciferase synthesis mixture. Serial dilutions of compounds were added (2.5 μL) to wells in a black round bottom 96-well plate. Water (2.5 μL) was used as a “no inhibitor” control in 4 wells/plate. No RNA control reaction mixture (2 μL; see below) was used as a control in 4 wells/plate for background luminescence. Rabbit reticulocyte luciferase synthesis mixture (22.5 μL; see below) was added to wells with compounds or water mixture and incubated at 30° C. for 90 minutes. Luciferase assay reagent (25 μL) was added with luminescence measured using a BioTek Synergy HTX plate reader. % Inhibition was determined relative to no inhibitor controls.
Rabbit Reticulocyte Luciferase Synthesis Mixture:
• 1,000 μL rabbit reticulocyte lysate • 5.7 μL Luciferase Control RNA (1 μg/μL) • 26 μL complete amino acid mixture • 395 μL water • No RNA Control • 70 μL rabbit reticulocyte lysate • 2 μL complete amino acid mixture • 28 μL water Minimum Inhibitory Concentration (MIC)

A further assay concerns E. coli (Ec). In words: Broth microdilution minimum inhibitory concentration (MIC), CLSI. As to conditions: growth medium supplemented with sodium bicarbonate; for MIC: Escherichia coli, read-out: E. coli + bicarb MIC. It is filed as cell-based. The protocol: (§1) A certified BSL-2 laboratory was used for testing. Compounds were evaluated using the broth microdilution minimum inhibitory concentration (MIC) and minimum bactericidal concentration (MBC) assays defined by Clinical and Laboratory Standards Institute (CLSI) in the M26-A guideline against S. aureus (Sa), E. coli (Ec), K. pneumoniae (Kp), A. baumannn (Ab), E. faecalis (Ef) and P. aeruginosa (Pa).
(§2) MICs were determined using the Clinical Laboratory and Standards Institute (CLSI) Broth Microdilution Method with slight modification. Clinical and Laboratory Standards Institute (2012). “Methods for dilution antimicrobial susceptibility tests for bacteria that grow aerobically; approved standard, 9th ed. M07-A9 Clinical and Laboratory Standards Institute, Wayne, PA” Serial two-fold dilutions of compounds are prepared in sterile clear round-bottom 96-well plates.
(§3) To prepare microdilution trays, two-fold dilutions of antimicrobial agent are prepared in growth medium: Cation-Adjusted Mueller-Hinton Broth (CAMHB), or CAMHB supplemented with sodium bicarbonate (6.25 or 25 mM final concentration prepared from a 1.0M stock solution) or CAMHB supplemented with heat inactivated human serum (Fisher Cat. #BP2657100) 0-50% by adding 200 µL of the highest concentration to be tested (64 μg/mL, for example) in row A, mixing and transferring 100 μL from row A to 100 μL growth medium in row B, then repeating the mixing and transferring through row H of the 96-well plate, discarding the excess […] remaining. This slight modification to the CLSI protocol enables evaluation of MICs for 3 compounds per plate in triplicate, albeit with only 8 compound dilutions (CLSI protocol enables 2 compounds in triplicate with 10 dilutions). Bacterial suspensions are added to a final concentration of 5×10^4 CFU/well by adding 5 μL of a 1:10 dilution of a 0.5 McFarland suspension (1×10^8 CFU/mL) for each bacterium evaluated. Bacterial suspensions were prepared using the growth method described by CLSI. Well-isolated colonies (3-5 from an agar plate) were selected using a sterile loop and used to inoculate a tube containing 4 mL of CAMHB. The cultures are incubated at 35±2° C. until it achieves or exceeds the turbidity of the 0.5 McFarland standard, determined by measuring A600 (usually two to six hours). When growth exceeds a 0.5 McFarland standard, the turbidity is adjusted with broth to be equivalent to a 0.5 McFarland standard.
(Broth dilution looks for growth in wells or tubes with falling amounts of substance.)

Another assay has as its system P. aeruginosa (Pa). The assay is described as above. It is filed as cell-based. As to conditions: Pseudomonas aeruginosa, growth medium supplemented with sodium bicarbonate, read-out: Pa MIC + bicarb. The protocol: as §1, §2, §3

Regarding `Cc1cc(-n2ccc(NC(=O)N3CCN(C(=O)C(C)(C)N)CC3)nc2=O)ccc1CN1C[C@@H]2[C@@H](N)[C@@H]2C1` [Compound 2], the results for the IC50 in assay [1] and in assay [2] were below 0.5 µM and at least 1 µM, respectively. The MIC in the assay on E. coli (Ec) is below 8 µg/mL.
For `CC(C)(N)C(=O)N1CCN(C(=O)Nc2ccn(-c3ccc(CN4C[C@@H]5[C@@H](N)[C@@H]5C4)c(Cl)c3)c(=O)n2)CC1` [Compound 7], the IC50 is below 0.5 µM in assay [1] and at least 1 µM in assay [2]. Also, the MIC was below 8 µg/mL in the assay with E. coli (Ec) and above 32 µg/mL with P. aeruginosa (Pa).
For `CC(C)(N)C(=O)N1CCN(C(=O)Nc2ccn(-c3ccc(CN4C[C@H](N)C5(CC5)C4)cc3)c(=O)n2)CC1` [Compound 16], the IC50 in assay [1] and in assay [2] was at least 1 µM throughout. Besides, in the assay on E. coli (Ec), the MIC lay in the range of 8 to 32 µg/mL.
On to `C[C@](N)(CF)C(=O)N1CCN(C(=O)Nc2ccn(-c3ccc(CN4C[C@@H]5[C@@H](N)[C@@H]5C4)cc3)c(=O)n2)CC1` [Compound 18], for which the IC50 in assay [1] was below 0.5 µM; in assay [2], at least 1 µM. For the same compound, the minimal inhibitory concentration (MIC) in the assay on E. coli (Ec) was below 8 µg/mL.
`CC(C)(N)C(=O)N1CCN(C(=O)Nc2ccn(-c3ccc(CN4C[C@@H](N)C5(CC5)C4)cc3)c(=O)n2)CC1` [Compound 19]: the IC50 in assay [1] was 0.5 to 1 µM; in assay [2] it was at least 1 µM. In the assay with E. coli (Ec), the minimum inhibitory concentration (MIC) is below 8 µg/mL.
As to `CC(C)(N)C(=O)N1CCN(C(=O)Nc2ccn(-c3ccc(CN4CCC5(CC5N)C4)cc3)c(=O)n2)CC1` (stereo not drawn) [Compound 21], the figures for the IC50 in assay [1] and in assay [2] were below 0.5 µM and at least 1 µM, respectively. In the assay with E. coli (Ec), the minimal inhibitory concentration (MIC) was below 8 µg/mL.
Take `CC(C)(N)CN1CCN(C(=O)Nc2ccn(-c3ccc(CN4C[C@@H]5[C@@H](N)[C@@H]5C4)cc3)c(=O)n2)CC1` [Compound 24]: the IC50 in assay [1] is 0.5 to 1 µM; in assay [2], at least 1 µM. Also, in the assay on E. coli (Ec), the MIC is below 8 µg/mL.
Regarding `CC(C)(N)C(=O)N1CCCN(C(=O)Nc2ccn(-c3ccc(CN4C[C@@H]5[C@@H](N)[C@@H]5C4)cc3)c(=O)n2)CC1` [Compound 26], the IC50 in assay [1] is at least 1 µM. Besides, the minimal inhibitory concentration (MIC) with E. coli (Ec) was below 8 µg/mL.
As for `CC(C)(N)C(=O)N1CCN(C(=O)Nc2ccn(-c3ccc(CN4CCC5(CC4)CC5N)cc3)c(=O)n2)CC1` (stereo not drawn) [Compound 39], the results for the IC50 in assay [1] and in assay [2] were below 0.5 µM and at least 1 µM, respectively. The MIC in the assay on E. coli (Ec) was below 8 µg/mL.
For the compound `CC(C)(N)CN1CCN(C(=O)Nc2ccn(-c3ccc(CN4C[C@@H]5[C@@H](N)[C@@H]5C4)cc3)c(=O)n2)CC1=O` [Compound 47], the IC50 is 0.5 to 1 µM in assay [1] and at least 1 µM in assay [2]. Moreover, the MIC in the assay on E. coli (Ec) fell in the range of 8 to 32 µg/mL.
Turning to `NC[C@H]1[C@@H]2CCN(C(=O)Nc3ccn(-c4ccc(CN5C[C@@H]6[C@@H](N)[C@@H]6C5)cc4)c(=O)n3)C[C@H]12` [Compound 50], the IC50 in assay [1] and in assay [2] was at least 1 µM in each case. Further, the “E. coli + bicarb MIC” value with E. coli (Ec) is “+++ (An MIC value (μg/mL) that is less than 8 μg/mL)”.
For `NC[C@H]1[C@@H]2CCN(C(=O)Nc3ccn(-c4ccc(CN5C[C@@H]6[C@@H](N)[C@@H]6C5)cc4)c(=O)n3)C[C@H]12` [Compound 51], the IC50 in assay [1] and in assay [2] was at least 1 µM each time. Further, the “E. coli + bicarb MIC” value in the assay on E. coli (Ec) is “+ (An MIC (μg/mL) value that is 32 μg/mL or greater)”.
With `N[C@@H]1[C@H]2CN(Cc3ccc(-n4ccc(NC(=O)N5CCC(C6OCCC[C@@H]6N)CC5)nc4=O)cc3)C[C@@H]12` (stereo partly drawn) [Compound 52], the IC50 in assay [1] and in assay [2] was at least 1 µM each time. In addition, the MIC in the assay with E. coli (Ec) was below 8 µg/mL.
Turning to `C[C@](N)(CO)C(=O)N1CCN(C(=O)Nc2ccn(-c3ccc(CN4C[C@@H]5[C@@H](CN)[C@@H]5C4)cc3)c(=O)n2)CC1` [Compound 69], the IC50 was below 0.5 µM in assay [1] and at least 1 µM in assay [2]. In the assay with E. coli (Ec), the minimal inhibitory concentration (MIC) was below 8 µg/mL.
In the case of `NC[C@@H]1[C@H]2CN(Cc3ccc(-n4ccc(NC(=O)N5CCN(C(=O)C6(CN)CC6)CC5)nc4=O)cc3)C[C@@H]12` [Compound 70], the IC50 in assay [1] is at least 1 µM. For the same compound, the minimal inhibitory concentration (MIC) with E. coli (Ec) is below 8 µg/mL.
`CC(C)(N)C(=O)N1CCN(C(=O)Nc2ccn(-c3ccc(CN4CC5CC5(CN)C4)cc3)c(=O)n2)CC1` (stereo not drawn) [Compound 71]: the IC50 is below 0.5 µM in assay [1] and at least 1 µM in assay [2]. Besides, the MIC with E. coli (Ec) is below 8 µg/mL.
As to `CC(C)(N)C(=O)N1CCN(C(=O)Nc2ccn(-c3ccc(CN4CC[C@@H]5[C@@H](CN)[C@@H]5C4)cc3)c(=O)n2)CC1` [Compound 72], the IC50 in assay [1] is below 0.5 µM; in assay [2], at least 1 µM. In addition, in the assay with E. coli (Ec), the MIC was below 8 µg/mL.
For `CC(C)(N)C(=O)N1CCN(C(=O)Nc2ccn(-c3ccc(CN4C[C@H]5CNC[C@H]5C4)cc3)c(=O)n2)CC1` [Compound 76], in that order: below 0.5 µM, at least 1 µM and below 8 µg/mL.
`CC(C)(N)C(=O)N1CCN(C(=O)Nc2ccn(-c3ccc(CN4CC[C@H]5NCC[C@H]5C4)cc3)c(=O)n2)CC1` [Compound 77]: the IC50 in assay [1] is below 0.5 µM; in assay [2], at least 1 µM. In the assay with E. coli (Ec), the MIC is below 8 µg/mL.
Consider `CC(C)(N)C(=O)N1CCN(C(=O)Nc2ccn(-c3ccc(CN4CCC5(CCNCC5)CC4)cc3)c(=O)n2)CC1` [Compound 82], for which the results for the IC50 in assay [1] and in assay [2] were below 0.5 µM and at least 1 µM, respectively. Moreover, the MIC in the assay on E. coli (Ec) is below 8 µg/mL.
For `CC(C)(N)C(=O)N1CCN(C(=O)Nc2ccn(-c3ccc(CCN4C[C@@H]5[C@@H](N)[C@@H]5C4)cc3)c(=O)n2)CC1` [Compound 84], in assay [1], the IC50 is at least 1 µM. The MIC in the assay with E. coli (Ec) was above 32 µg/mL.
As for `C[C@](N)(CO)C(=O)N1CCN(C(=O)Nc2ccn(-c3ccc(CCN4C[C@@H]5[C@@H](N)[C@@H]5C4)cc3)c(=O)n2)CC1` [Compound 85], the IC50 in assay [1] is at least 1 µM. For the same compound, the MIC in the assay with E. coli (Ec) is above 32 µg/mL.
